Assay results taken from EP4803080A1, “METHOD FOR TREATING LEUKEMIA” (Shenzhen TargetRx Co., Ltd., priority 2023, dated 2025).

Assays:
[1] = Phase I clinical trial: pharmacokinetics; format: in vivo, humans; conditions: CML patients, oral
Text: • 1) To preliminarily evaluate the pharmacokinetic characteristics of Compound A after multiple oral administrations; • 2) To preliminarily evaluate the antitumor effects of Compound A.
(§1) This study is a single-arm, open-label, dose-escalation and dose-expansion Phase I clinical trial. The trial plans to enroll patients with chronic myeloid leukemia (CML) who have developed resistance or intolerance after prior treatment with BCR-ABL1 tyrosine kinase inhibitor(s) (TKIs).
The dose-escalation phase of this trial consists of about 8 dose groups, with oral administration under fasting conditions. Subjects in all dose groups will receive a single dose on Day 1 (D1), followed by pharmacokinetic (PK) and tolerability observations. If no drug-related adverse events of Grade 3 or higher occur during the single-dose period, the subject will enter the multiple-dose period (i.e., the treatment period) after 3-5 days (for the first dose group, the multiple-dose period begins 5 days after the first dose [i.e., starting on Day 6]; for subsequent dose groups, the interval will be determined based on available tolerability and PK data). […] The dosing frequency for subjects in subsequent dose groups after entering the multiple-dose period will be determined based on available PK and tolerability data. […]

[2] = Phase I clinical trial: safety and tolerability; format: in vivo
Text: To explore the safety and tolerability of multiple doses of Compound A in humans, and to determine the maximum tolerated dose (MTD) and the recommended Phase II dose (RP2D).
as §1
(§2) The dose-escalation phase of this trial consists of about 8 dose groups, with oral administration under fasting conditions. Subjects in all dose groups will receive a single dose on Day 1 (D1), followed by pharmacokinetic (PK) and tolerability observations. If no drug-related adverse events of Grade 3 or higher occur during the single-dose period, the subject will enter the multiple-dose period (i.e., the treatment period) after 3-5 days (for the first dose group, the multiple-dose period begins 5 days after the first dose [i.e., starting on Day 6]; for subsequent dose groups, the interval will be determined based on available tolerability and PK data). After entering the multiple-dose period, subjects in the first dose group will initially receive twice-daily (BID) dosing (if PK data from the single-dose period are available, the dosing frequency during the multiple-dose period may be adjusted based on the PK data). The dosing frequency for subjects in subsequent dose groups after entering the multiple-dose period will be determined based on available PK and tolerability data. Throughout the trial, dosing frequency for all subjects may be adjusted based on continuously updated safety and PK data.
(§3) A continuous reassessment method (CRM) based on the principle of the escalation with overdose control (EWOC) design will be used to recommend the next specific dose for each dose escalation, thereby completing dose escalation and determining the maximum tolerated dose (MTD). If both the investigator and sponsor believe that higher dose groups may offer better efficacy and manageable safety, the EWOC-based CRM method may be used to explore higher doses. All enrolled subjects will receive long-term treatment with the test drug and undergo evaluations for safety, tolerability, and preliminary efficacy.

[3] = system: chronic phase (CP) chronic myeloid leukemia (CML); assay: Phase I dose escalation and dose expansion clinical trial: efficacy in CML-CP subjects; format: in vivo, humans
Text: This study is a single-arm, open-label, dose-escalation and dose-expansion Phase I clinical trial.
as §2, with “If no drug-related adverse events of Grade 3 or higher occur during the single-dose period, the subject will enter the multiple-dose period (i.e., the treatment period) after 3-5 days (for the first dose group, the multiple-dose period begins 5 days after the first dose [i.e., starting on Day 6]; for subsequent dose groups, the interval will be determined based on available tolerability and PK data).” left out
as §3
After obtaining certain research data from the dose-escalation phase, the investigator may comprehensively consider safety, efficacy, and other information to decide whether to enroll additional subjects at the MTD and/or lower dose levels to determine the recommended Phase II dose (RP2D). Two to four suitable dosing regimens will be selected for expansion in the target population (including subjects enrolled at the target dose levels during the escalation phase).
A total of 8 dose groups were established: 10 mg bid, 20 mg bid, 40 mg bid, 80 mg bid, 40 mg qd, 80 mg qd, 160 mg qd, and 240 mg qd.
The dose expansion phase was conducted in the following 3 cohorts: • Cohort 1: Subjects with chronic phase (CP) chronic myeloid leukemia (CML) who had previously received at least ≥2 different TKIs and were T315I-negative. A total of 3 dose groups were established: 40 mg qd, 80 mg qd, and 240 mg qd; • Cohort 2: Subjects with chronic phase (CP) chronic myeloid leukemia (CML) who have previously received ≥1 TKI and were T315I-positive. A total of 2 dose groups were established: 40 mg qd and 240 mg qd; • Cohort 3: Subjects with accelerated phase (AP) chronic myeloid leukemia (CML) who have previously received ≥1 TKI, regardless of T315I positivity. A total of 1 dose group was established: 240 mg qd.

[4] = CML subjects, safety data cutoff June 2, 2023
[5] = CML-CP subjects previously treated with ponatinib, olverembatinib, asciminib, and/or HS-10382, as of June 2, 2024
[6] = CML-CP subjects, all doses, 58 evaluable, as of August 24, 2023
[7] = CML-CP subjects, all doses, as of August 24, 2023
[8] = CML-CP subjects, as of June 2, 2024
[9] = CML-CP, 10 mg BID, 2 evaluable subjects, as of August 24, 2023
[10] = CML-CP, 20 mg BID, 3 evaluable subjects, as of August 24, 2023
[11] = CML-CP, 40 mg BID, 1 evaluable subject, as of August 24, 2023
[12] = CML-CP, 40 mg QD, 15 evaluable subjects, as of August 24, 2023
[13] = CML-CP, 40 mg/day Total, 18 evaluable subjects, as of August 24, 2023
[14] = CML-CP, 80 mg BID, 3 evaluable subjects, as of August 24, 2023
[15] = CML-CP, 80 mg QD, 2 evaluable subjects, as of August 24, 2023
[16] = CML-CP, 80 mg/day Total, 3 evaluable subjects, as of August 24, 2023
[17] = CML-CP, 160 mg QD, 1 evaluable subject, as of August 24, 2023
[18] = CML-CP, 160 mg/day Total, 4 evaluable subjects, as of August 24, 2023
[19] = CML-CP, 240 mg QD, 31 evaluable subjects, as of August 24, 2023
[20] = CML-CP, Total, all dose groups, 58 evaluable subjects, as of August 24, 2023

O=C(Nc1ccc(OC(F)(F)Cl)cc1)c1cnc(N2CC[C@@H](F)C2)c(-c2cnccn2)c1 [Compound A, (R)-N-(4-(chlorodifluoromethoxy)phenyl)-6-(3-fluoropyrrolidin-1-yl)-5-(pyrazin-2-yl)nicotinamide]
exposure versus dose [1]: dose-proportional
half-life ([1]; human, in vivo, read-out: terminal half-life): > 100 h
dose-dependent increase in the frequency of adverse events ([2]; CML subjects, 10 mg BID to 240 mg QD, safety data cutoff June 2, 2023): no observed dose-dependent increase
Grade ≥3 hematological adverse events associated with the test drug [2, 4]: mostly manageable with treatment interruption
non-hematological toxicity compared to ATP-competitive TKIs [2, 4]: significant improvement in non-hematological toxicity
pigmentation or severe arterial occlusive events and venous thromboembolic events [2, 4]: no reported
safety and tolerability profile [2, 4]: favorable safety and tolerability profile
tolerability ([2]; CML-CP and CML-AP patients, extended follow-up, as of June 2, 2024): good tolerability
18-month cumulative incidence of CCyR [3, 5]: 17%
18-month cumulative incidence of MCyR [3, 5]: 32%
CHR ([3]; CML-CP subjects, all doses, 35 evaluable, as of August 24, 2023): 91.4%
CCyR [3, 6]: 34.5%
MCyR [3, 6]: 39.7%
MMR ([3]; CML-CP subjects, all doses, 62 evaluable, as of August 24, 2023): 16.1%
median time to CCyR [3, 7]: 2.81 (2.76, 3.30) months
median time to MCyR [3, 7]: 2.83 (2.76, 3.68) months
median time to MMR [3, 7]: 2.81 (2.76, 5.49) months
CHR within 3 treatment cycles ([3]; CML-CP subjects, 49 evaluable, as of June 2, 2024): 82%
18-month cumulative incidence rate for CCyR [3, 8]: 40%
18-month cumulative incidence rate for MCyR [3, 8]: 52%
18-month cumulative incidence rate for MMR [3, 8]: 26%
CHR ([3]; CML-CP, 10 mg BID, 0 evaluable subjects, as of August 24, 2023): 0 n (%)
CCyR [3, 9]: 1 (50.0) n (%)
MCyR [3, 9]: 2 (100) n (%)
MMR [3, 9]: 1 (50.0) n (%)
CHR ([3]; CML-CP, 20 mg BID, 2 evaluable subjects, as of August 24, 2023): 2 (100) n (%)
CCyR [3, 10]: 2 (66.7) n (%)
MCyR [3, 10]: 2 (66.7) n (%)
MMR [3, 10]: 0 n (%)
CCyR [3, 11]: 0 n (%)
CHR [3, 11]: 1 (100) n (%)
MCyR [3, 11]: 0 n (%)
MMR [3, 11]: 0 n (%)
CHR ([3]; CML-CP, 40 mg QD, 7 evaluable subjects, as of August 24, 2023): 6 (85.7) n (%)
CCyR [3, 12]: 5 (33.3) n (%)
MCyR [3, 12]: 5 (33.3) n (%)
MMR ([3]; CML-CP, 40 mg QD, 17 evaluable subjects, as of August 24, 2023): 3 (17.6) n (%)
CHR ([3]; CML-CP, 40 mg/day Total, 9 evaluable subjects, as of August 24, 2023): 8 (88.9) n (%)
CCyR [3, 13]: 7 (38.9) n (%)
MCyR [3, 13]: 7 (38.9) n (%)
MMR ([3]; CML-CP, 40 mg/day Total, 20 evaluable subjects, as of August 24, 2023): 3 (15.0) n (%)
CHR ([3]; CML-CP, 80 mg BID, 2 evaluable subjects, as of August 24, 2023): 2 (100) n (%)
CCyR [3, 14]: 1 (33.3) n (%)
MCyR [3, 14]: 1 (33.3) n (%)
MMR [3, 14]: 1 (33.3) n (%)
CCyR [3, 15]: 1 (50.0) n (%)
MCyR [3, 15]: 1 (50.0) n (%)
MMR [3, 15]: 0 n (%)
CHR ([3]; CML-CP, 80 mg QD, 3 evaluable subjects, as of August 24, 2023): 3 (100) n (%)
CCyR [3, 16]: 1 (33.3) n (%)
MCyR [3, 16]: 1 (33.3) n (%)
MMR [3, 16]: 0 n (%)
CHR ([3]; CML-CP, 80 mg/day Total, 4 evaluable subjects, as of August 24, 2023): 4 (100) n (%)
CCyR [3, 17]: 1 (100) n (%)
CHR [3, 17]: 1 (100) n (%)
MCyR [3, 17]: 1 (100) n (%)
MMR [3, 17]: 1 (100) n (%)
CHR ([3]; CML-CP, 160 mg/day Total, 3 evaluable subjects, as of August 24, 2023): 3 (100) n (%)
CCyR [3, 18]: 2 (50.0) n (%)
MCyR [3, 18]: 2 (50.0) n (%)
MMR [3, 18]: 2 (50.0) n (%)
CHR ([3]; CML-CP, 240 mg QD, 19 evaluable subjects, as of August 24, 2023): 17 (89.5) n (%)
CCyR [3, 19]: 9 (29.0) n (%)
MCyR [3, 19]: 11 (35.5) n (%)
MMR ([3]; CML-CP, 240 mg QD, 33 evaluable subjects, as of August 24, 2023): 4 (12.1) n (%)
CHR ([3]; CML-CP, Total, all dose groups, 35 evaluable subjects, as of August 24, 2023): 32 (91.4) n (%)
CCyR [3, 20]: 20 (34.5) n (%)
MCyR [3, 20]: 23 (39.7) n (%)
MMR ([3]; CML-CP, Total, all dose groups, 62 evaluable subjects, as of August 24, 2023): 10 (16.1) n (%)
